Measured values taken from ChEMBL document CHEMBL5584343, “Cerastecin Inhibition of the Lipooligosaccharide Transporter MsbA to Combat Acinetobacter baumannii: From Screening Impurity to In Vivo Efficacy” (J Med Chem, 2024).
Converted amounts (≈) assume the structure as drawn.

How the values were obtained:
Acinetobacter baumannii [1] = assay: Antibacterial activity against Acinetobacter baumannii ATCC19606 assessed as bacterial growth inhibition incubated for 18 to 20 hrs by microbroth dilution method; assay type: functional; conditions: time 18-20 hrs
[2] = Inhibition of wildtype Acinetobacter baumannii MsbA preincubated for 30 mins followed by ATP addition and measured after 1 hrs by Transcreener ADP2 F1 assay
Acinetobacter baumannii [3] = assay: Antibacterial activity against Acinetobacter baumannii ATCC19606 incubated for 18 to 20 hrs in presence of 1% of human serum by microbroth dilution method; assay type: functional; conditions: time 18-20 hrs
Acinetobacter baumannii [4] = assay: Selectivity ratio of MIC95 for antibacterial activity against Acinetobacter baumannii ATCC19606 in the presence of 1% human serum to MIC95 for antibacterial activity against Acinetobacter baumannii ATCC19606; assay type: functional

Compound `CCCCc1ccc(S(=O)(=O)Nc2ccc(C(=O)NCCNC(=O)c3ccc(NS(=O)(=O)c4ccc(CCCC)cc4)c(C(=O)O)c3)cc2C(=O)O)cc1` has an MIC95 (Acinetobacter baumannii [1]) greater than 200 µM, an EC50 [2] greater than 198 µM and an MIC95 (Acinetobacter baumannii [3]) greater than 200 µM.

`CCCCc1ccc(S(=O)(=O)Nc2ccc(NC(=O)CCC(=O)Nc3ccc(NS(=O)(=O)c4ccc(OC)nc4)c(C(=O)O)c3)cc2C(=O)O)cc1` gave an MIC95 (Acinetobacter baumannii [1]) of 1.56 µM (≈ 1.18 µg/mL), an EC50 [2] of 0.092 µM and an MIC95 (Acinetobacter baumannii [3]) of 25 µM. The Selectivity ratio (Acinetobacter baumannii [4]) was 16.

`CCCCc1ccc(S(=O)(=O)Nc2ccc(NC(=O)CCC(=O)Nc3ccc(NS(=O)(=O)c4ccc(CCCC)cc4)c(C(=O)O)c3)cc2F)cc1` gave an MIC95 (Acinetobacter baumannii [1]) greater than 200 µM, an EC50 [2] of 1.17 µM and an MIC95 (Acinetobacter baumannii [3]) greater than 200 µM.

Compound `CCCCc1ccc(S(=O)(=O)Nc2ccc(N(C)C(=O)CCC(=O)N(C)c3ccc(NS(=O)(=O)c4ccc(CCCC)cc4)c(C(=O)O)c3)cc2C(=O)O)cc1` has an MIC95 (Acinetobacter baumannii [1]) greater than 200 µM, an EC50 [2] greater than 198 µM and an MIC95 (Acinetobacter baumannii [3]) greater than 200 µM.

`CCCCc1ccc(S(=O)(=O)Nc2ccc(NC(=O)CCC(=O)Nc3ccc(NS(=O)(=O)c4ccc(CCCC)cc4)c(S(=O)(=O)O)c3)cc2C(=O)O)cc1` showed an MIC95 (Acinetobacter baumannii [1]) of 0.196 µM (≈ 0.16 µg/mL), an EC50 [2] of 0.037 µM and an MIC95 (Acinetobacter baumannii [3]) of 12.5 µM. It also gave a Selectivity ratio (Acinetobacter baumannii [4]) of 64.

Work on `CCCCc1ccc(S(=O)(=O)Nc2ccc(NC(=O)CCC(=O)Nc3ccc(NS(=O)(=O)c4ccc(CCCC)cc4)c(C(=O)O)c3)cc2CO)cc1` yielded an MIC95 (Acinetobacter baumannii [1]) of 6.25 µM (≈ 4.78 µg/mL), an EC50 [2] of 1.24 µM and an MIC95 (Acinetobacter baumannii [3]) greater than 200 µM. It also gave a Selectivity ratio (Acinetobacter baumannii [4]) greater than 32.

In the case of `CCCCc1ccc(S(=O)(=O)Nc2ccc(NC(=O)CCC(=O)Nc3ccc(NS(=O)(=O)c4ccc(CCCC)nc4)c(C(=O)O)c3)cc2C(=O)O)cc1`, the MIC95 (Acinetobacter baumannii [1]) is reported as 0.196 µM (≈ 0.153 µg/mL), the EC50 [2] is reported as 0.064 µM and the MIC95 (Acinetobacter baumannii [3]) is reported as 12.5 µM. For the same compound, the Selectivity ratio (Acinetobacter baumannii [4]) was 64.

For `CCCCc1ccc(S(=O)(=O)Nc2ccc(NC(=O)CCC(=O)Nc3ccc(NS(=O)(=O)c4ccc(CCCC)cc4)c(C(=O)O)c3)cc2)cc1`, the MIC95 (Acinetobacter baumannii [1]) was 0.781 µM (≈ 0.574 µg/mL), the EC50 [2] was 0.79 µM and the MIC95 (Acinetobacter baumannii [3]) was greater than 200 µM. The Selectivity ratio (Acinetobacter baumannii [4]) was greater than 256.

For `CCCCc1ccc(S(=O)(=O)Nc2ccc(NC(=O)CCC(=O)Nc3ccc(NS(=O)(=O)c4ccc(CCCC)cn4)c(C(=O)O)c3)cc2C(=O)O)nc1`, the MIC95 (Acinetobacter baumannii [1]) was 25 µM (≈ 19.5 µg/mL), the EC50 [2] was 1.79 µM and the MIC95 (Acinetobacter baumannii [3]) was 200 µM. The Selectivity ratio (Acinetobacter baumannii [4]) was 8.

With `CCCCc1ccc(S(=O)(=O)Nc2ccc(NC(=O)[C@H]3C[C@@H]3C(=O)Nc3ccc(NS(=O)(=O)c4ccc(CCCC)cc4)c(C(=O)O)c3)cc2C(=O)O)cc1` (racemic) the MIC95 (Acinetobacter baumannii [1]) was 1.1 µM (≈ 0.874 µg/mL), the EC50 [2] was greater than 22.1 µM and the MIC95 (Acinetobacter baumannii [3]) was greater than 200 µM. The Selectivity ratio (Acinetobacter baumannii [4]) was greater than 181.

Compound `CCCCc1ccc(S(=O)(=O)Nc2ccc(NC(=O)CCC(=O)Nc3ccc(NS(=O)(=O)c4ccc(CCCC)cc4)c(C(=O)OCC)c3)cc2C(=O)OCC)cc1` has an MIC95 (Acinetobacter baumannii [1]) greater than 200 µM, an EC50 [2] greater than 198 µM and an MIC95 (Acinetobacter baumannii [3]) greater than 200 µM.

Compound `CCCCc1ccc(S(=O)(=O)Nc2ccc(NC(=O)CCC(=O)Nc3ccc(NS(=O)(=O)c4ccc(CCCC)cc4)c(C(=O)O)c3)cc2C#N)cc1` has an MIC95 (Acinetobacter baumannii [1]) greater than 200 µM, an EC50 [2] of 1.6 µM and an MIC95 (Acinetobacter baumannii [3]) greater than 200 µM.

Work on `CCCCc1ccc(S(=O)(=O)Nc2ccc(NC(=O)CCC(=O)Nc3ccc(NS(=O)(=O)c4ccc(CCCC)cc4)c(C(N)=O)c3)cc2C(N)=O)cc1` yielded an MIC95 (Acinetobacter baumannii [1]) greater than 200 µM, an EC50 [2] of 0.512 µM and an MIC95 (Acinetobacter baumannii [3]) greater than 200 µM.

`CCCCc1ccc(C(=O)Nc2ccc(NC(=O)CCC(=O)Nc3ccc(NS(=O)(=O)c4ccc(CCCC)cc4)c(C(=O)O)c3)cc2C(=O)O)cc1` gave an MIC95 (Acinetobacter baumannii [1]) greater than 200 µM, an EC50 [2] greater than 198 µM and an MIC95 (Acinetobacter baumannii [3]) greater than 200 µM.

Work on `CCCCc1ccc(S(=O)(=O)Nc2ccc(NC(=O)CCC(=O)Nc3cccc(C(=O)O)c3)cc2C(=O)O)cc1` yielded an MIC95 (Acinetobacter baumannii [1]) greater than 200 µM, an EC50 [2] of 32.4 µM and an MIC95 (Acinetobacter baumannii [3]) greater than 200 µM.

`CCCCc1ccc(S(=O)(=O)Nc2ccc(NC(=O)CCC(=O)Nc3ccc(N)c(C(=O)O)c3)cc2C(=O)O)cc1` showed an MIC95 (Acinetobacter baumannii [1]) greater than 200 µM, an EC50 [2] greater than 66.2 µM and an MIC95 (Acinetobacter baumannii [3]) greater than 200 µM.

Work on `CCCCc1ccc(S(=O)(=O)Nc2ccc(NC(=O)CCC(=O)Nc3ccc(NS(=O)(=O)c4ccc(CCCC)cc4)c(C(=O)NC)c3)cc2C(=O)O)cc1` yielded an MIC95 (Acinetobacter baumannii [1]) greater than 200 µM, an EC50 [2] of 0.765 µM and an MIC95 (Acinetobacter baumannii [3]) greater than 200 µM.

Compound `CCCCc1ccc(S(=O)(=O)N(C)c2ccc(NC(=O)CCC(=O)Nc3ccc(N(C)S(=O)(=O)c4ccc(CCCC)cc4)c(C(=O)O)c3)cc2C(=O)O)cc1` has an MIC95 (Acinetobacter baumannii [1]) greater than 200 µM, an EC50 [2] greater than 198 µM and an MIC95 (Acinetobacter baumannii [3]) greater than 200 µM.
